Data taken from patent publication US8163778B2 (Hoffmann-LA Roche Inc., priority 2007, dated 2012).

target: T1, human liver FBPase (Homo sapiens, UniProt P09467); test: FBPase assay (malachite green phosphate release); type: biochemical; details: recombinant human liver FBPase, 50 μM fructose-1,6-bisphosphate
T1 construct: made in house; host or cells: E. coli
T1 sequence (P09467 2-338 limits assumed): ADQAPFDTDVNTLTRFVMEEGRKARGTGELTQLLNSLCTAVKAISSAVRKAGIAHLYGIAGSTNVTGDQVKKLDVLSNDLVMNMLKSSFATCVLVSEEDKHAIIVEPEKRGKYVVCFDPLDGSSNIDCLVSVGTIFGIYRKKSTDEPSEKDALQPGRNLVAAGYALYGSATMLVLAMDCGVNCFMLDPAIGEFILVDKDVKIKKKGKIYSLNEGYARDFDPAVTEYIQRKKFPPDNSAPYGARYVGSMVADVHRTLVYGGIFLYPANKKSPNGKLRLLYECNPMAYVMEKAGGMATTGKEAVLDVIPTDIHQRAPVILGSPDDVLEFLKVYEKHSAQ
Method in brief: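 Recombinant human liver FBPase (E. coli-expressed, heat-treated, purified) reacted with 50 μM fructose-1,6-bisphosphate in pH 7.2 HEPES, 2 mM MgCl2, 1% DMSO, 50 min at room temperature. Released phosphate quantified with malachite green/ammonium molybdate reagent at 620 nm.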

Row | SMILES | IC50 [nM]
1 | CNC(=O)c1cc(N)nc(NC(=O)NS(=O)(=O)c2cc(C)c(CCOC)s2)c1 [Compound 104, 2-Amino-6-[({[5-(2-methoxyethyl)-4-methyl-2-thienyl]sulfonyl}carbamoyl)amino]-N-methylisonicotinamide] | > 100000
2 | COCCc1sc(S(=O)(=O)NC(=O)Nc2cc(SC)cc(-c3noc(C)n3)n2)cc1C [Compound 117, 5-(2-methoxyethyl)-4-methyl-N-{[6-(5-methyl-1,2,4-oxadiazol-3-yl)-4-(methylthio)pyridin-2-yl]carbamoyl}thiophene-2-sulfonamide] | 1630
3 | COCCc1sc(S(=O)(=O)NC(=O)Nc2cc(Br)cc(N3CCOCC3)n2)cc1C [Compound 31, N-[(4-Bromo-6-morpholin-4-ylpyridin-2-yl)carbamoyl]-5-(2-methoxyethyl)-4-methylthiophene-2-sulfonamide] | 429
4 | COCCc1sc(S(=O)(=O)NC(=O)Nc2cc(C(F)(F)F)cc(Cl)n2)cc1C [Compound 90, N-{[6-chloro-4-(trifluoromethyl)pyridin-2-yl]carbamoyl}-5-(2-methoxyethyl)-4-methylthiophene-2-sulfonamide] | 1060
5 | CC(=O)OCCc1sc(S(=O)(=O)NC(=O)Nc2cc(C(F)(F)F)cc(Cl)n2)cc1C [Compound 93, 2-{5-[({[6-chloro-4-(trifluoromethyl)pyridin-2-yl]carbamoyl}amino)sulfonyl]-3-methyl-2-thienyl}ethyl acetate] | 844
6 | C=C(C)CNc1cc(SC)cc(NC(=O)NS(=O)(=O)c2cc(C)c(CCOC)s2)n1 [Compound 80, 5-(2-Methoxyethyl)-4-methyl-N-({6-[(2-methylprop-2-en-1-yl)amino]-4-(methylthio)pyridin-2-yl}carbamoyl)thiophene-2-sulfonamide] | 1610
7 | COCCc1sc(S(=O)(=O)NC(=O)Nc2cc(C(F)(F)F)c(F)c(N)n2)cc1C [Compound 79, N-{[6-Amino-5-fluoro-4-(trifluoromethyl)pyridin-2-yl]carbamoyl}-5-(2-methoxyethyl)-4-methylthiophene-2-sulfonamide] | 558
8 | CNC(=O)Nc1cc(C#N)cc(NC(=O)NS(=O)(=O)c2cc(C)c(CCOC)s2)n1 [Compound 23, N-({4-Cyano-6-[(methylcarbamoyl)amino]pyridin-2-yl}carbamoyl)-5-(2-methoxyethyl)-4-methylthiophene-2-sulfonamide] | 242
9 | CNC(=O)Nc1cc(SC)cc(NC(=O)NS(=O)(=O)c2coc3ccccc23)n1 [Compound 89, N-({6-[(Methylcarbamoyl)amino]-4-(methylthio)pyridin-2-yl}carbamoyl)-1-benzofuran-3-sulfonamide] | 500
10 | COCCc1sc(S(=O)(=O)NC(=O)Nc2cc(SC)cc(C(N)=O)n2)cc1C [Compound 112, 6-[({[5-(2-Methoxyethyl)-4-methyl-2-thienyl]sulfonyl}carbamoyl)amino]-4-(methylthio)pyridine-2-carboxamide] | 800
11 | CNC(=O)Nc1cc(OC)cc(NC(=O)NS(=O)(=O)c2cc3cc(Cl)ccc3s2)n1 [Compound 1, 5-Chloro-N-({4-methoxy-6-[(methylcarbamoyl)amino]pyridin-2-yl}carbamoyl)-1-benzothiophene-2-sulfonamide] | 58
12 | CC(=O)OCCc1sc(S(=O)(=O)NC(=O)Nc2cc(C(F)(F)F)c(F)c(N)n2)cc1C [Compound 81, 2-{5-[({[6-Amino-5-fluoro-4-(trifluoromethyl)pyridin-2-yl]carbamoyl}amino)sulfonyl]-3-methyl-2-thienyl}ethyl acetate] | 665
13 | COCCc1sc(S(=O)(=O)NC(=O)Nc2cc(Br)cc(NC(=O)N(C)C)n2)cc1C [Compound 54, N-({4-Bromo-6-[(dimethylcarbamoyl)amino]pyridin-2-yl}carbamoyl)-5-(2-methoxyethyl)-4-methylthiophene-2-sulfonamide] | 1520
14 | COCCc1sc(S(=O)(=O)NC(=O)Nc2cc(C(N)=O)cc(N)n2)cc1C [Compound 102, 2-Amino-6-[({[5-(2-methoxyethyl)-4-methyl-2-thienyl]sulfonyl}carbamoyl)amino]isonicotinamide] | 42000
15 | COCCc1sc(S(=O)(=O)NC(=O)Nc2cc(C(F)(F)F)cc(C(=O)OC)n2)cc1C [Compound 91, Methyl-6-[({[5-(2-methoxyethyl)-4-methyl-2-thienyl]sulfonyl}carbamoyl)amino]-4-(trifluoromethyl)pyridine-2-carboxylate] | 2160
16 | Cc1cc(C(F)(F)F)cc(NC(=O)NS(=O)(=O)c2ccc(C)s2)n1 [Compound 121, 5-Methyl-N-{[6-methyl-4-(trifluoromethyl)pyridin-2-yl]carbamoyl}thiophene-2-sulfonamide] | 1170
17 | COc1cc(NC(N)=O)nc(NC(=O)NS(=O)(=O)c2csc(C)c2)c1 [Compound 22, N-{[6-(Carbamoylamino)-4-methoxypyridin-2-yl]carbamoyl}-5-methylthiophene-3-sulfonamide] | 230

Row | SMILES | IC50 [nM]
18 | Nc1cc(Br)cc(NC(=O)NS(=O)(=O)c2coc3ccc(Br)cc23)n1 [Compound 83, N-[(6-Amino-4-bromopyridin-2-yl)carbamoyl]-5-bromo-1-benzofuran-3-sulfonamide] | 5230
19 | COCCc1sc(S(=O)(=O)NC(=O)Nc2cc(C)cc(C3CCc4ccccc4C3)n2)cc1C (stereo not drawn) [Compound 46, 5-(2-Methoxyethyl)-4-methyl-N-{[4-methyl-6-(1,2,3,4-tetrahydronaphthalen-2-yl)pyridin-2-yl]carbamoyl}thiophene-2-sulfonamide] | 937
20 | COCCc1sc(S(=O)(=O)NC(=O)Nc2cc(SC)cc(NCCF)n2)cc1C [Compound 45, N-({6-[(2-Fluoroethyl)amino]-4-(methylthio)pyridin-2-yl}carbamoyl)-5-(2-methoxyethyl)-4-methylthiophene-2-sulfonamide] | 866
21 | COCc1sc(S(=O)(=O)NC(=O)Nc2cc(Br)cc(N)n2)cc1C [Compound 21, N-[(6-Amino-4-bromopyridin-2-yl)carbamoyl]-5-(methoxymethyl)-4-methylthiophene-2-sulfonamide] | 225
22 | COCCc1sc(S(=O)(=O)NC(=O)Nc2cc(SC)cc(NCCO)n2)cc1C [Compound 48, N-({6-[(2-Hydroxyethyl)amino]-4-(methylthio)pyridin-2-yl}carbamoyl)-5-(2-methoxyethyl)-4-methylthiophene-2-sulfonamide] | 1020
23 | COCCc1sc(S(=O)(=O)NC(=O)Nc2cc(SC)cc(NC(N)=O)n2)cc1C [Compound 17, N-{[6-(Carbamoylamino)-4-(methylthio)pyridin-2-yl]carbamoyl}-5-(2-methoxyethyl)-4-methylthiophene-2-sulfonamide] | 185
24 | Cc1cccc(S(=O)(=O)NC(=O)Nc2cccc(Cl)n2)c1 [Compound 72, N-[(6-Chloropyridin-2-yl)carbamoyl]-3-methylbenzenesulfonamide] | 4600
25 | COCCc1sc(S(=O)(=O)NC(=O)Nc2cc(SC)cc(Br)n2)cc1C [Compound 25, N-{[6-Bromo-4-(methylthio)pyridin-2-yl]carbamoyl}-5-(2-methoxyethyl)-4-methylthiophene-2-sulfonamide] | 260
26 | Nc1cc(Br)cc(NC(=O)NS(=O)(=O)c2ccc3c(c2)OCCO3)n1 [Compound 37, N-[(6-Amino-4-bromopyridin-2-yl)carbamoyl]-2,3-dihydro-1,4-benzodioxine-6-sulfonamide] | 574
27 | Cc1cc(S(=O)(=O)NC(=O)Nc2cc(Br)cc(NC(N)=O)n2)cs1 [Compound 2, N-{[4-Bromo-6-(carbamoylamino)pyridin-2-yl]carbamoyl}-5-methylthiophene-3-sulfonamide] | 72
28 | COCCc1sc(S(=O)(=O)NC(=O)Nc2cc(SC)cc(C(N)=NO)n2)cc1C [Compound 115, N′-Hydroxy-6-[({[5-(2-methoxyethyl)-4-methyl-2-thienyl]sulfonyl}carbamoyl)amino]-4-(methylthio)pyridine-2-carboximidamide] | 2780
29 | CNC(=O)Nc1cc(-c2noc(C)n2)cc(NC(=O)NS(=O)(=O)c2cc(C)c(CCOC)s2)n1 [Compound 109, 5-(2-Methoxyethyl)-4-methyl-N-({6-[(methylcarbamoyl)amino]-4-(5-methyl-1,2,4-oxadiazol-3-yl)pyridin-2-yl}carbamoyl)thiophene-2-sulfonamide] | 1870
30 | COCCc1sc(S(=O)(=O)NC(=O)Nc2cc(C)cc(N3CCc4ccccc4C3)n2)cc1C [Compound 56, N-{[6-(3,4-Dihydroisoquinolin-2(1H)-yl)-4-methylpyridin-2-yl]carbamoyl}-5-(2-methoxyethyl)-4-methylthiophene-2-sulfonamide] | 1730
31 | CNC(=O)c1cc(C(F)(F)F)cc(NC(=O)NS(=O)(=O)c2cc(C)c(CCO)s2)n1 [Compound 97, Methyl-6-[({[5-(2-hydroxyethyl)-4-methyl-2-thienyl]sulfonyl}carbamoyl)amino]-4-(trifluoromethyl)pyridine-2-carboxamide] | 278
32 | Cc1csc(S(=O)(=O)NC(=O)Nc2cc(C(F)(F)F)cc(C)n2)c1 [Compound 122, 4-Methyl-N-{[6-methyl-4-(trifluoromethyl)pyridin-2-yl]carbamoyl}thiophene-2-sulfonamide] | 730
33 | CCOc1cc(N)nc(NC(=O)NS(=O)(=O)c2cc(C)c(CCOC)s2)c1 [Compound 64, N-[(6-Amino-4-ethoxypyridin-2-yl)carbamoyl]-5-(2-methoxyethyl)-4-methylthiophene-2-sulfonamide] | 2180
